Assay results as given in article PMC6600574 (Molecules, 2019).
Read-outs that look alike come from different tables or passages of the source.

Columns and labels:
[1] = tested on: CYP 1B1 (liver microsomes); assay: Inhibition of hepatic microsome-catalyzed CYP oxidation; assay type: in vitro ADME, human; conditions: CYP 1B1, substrate TFD008_1, liver microsomes
Description: (§1) Incubations were carried out in a total volume of 100 µl of 100 mM Tris-HCl buffer (pH 7.4) in all black, flat-bottom Costar 96-well plates (Corning Incorporated, Corning, NY, USA). […] The samples were then preincubated at 37 °C for 10 min. The reactions were initiated by the addition of NADPH, and 0–10 µM 7-hydroxycoumarin was used as the standard. The fluorescent signal was measured with a Victor^2 1420 multilabel plate counter (PerkinElmer Lifesciences Wallac, Turku, Finland) with excitation and emission wavelengths of 405 and 460 nm, respectively. Fluorescence was monitored every 2 min for 40 min from where the concentration was calculated at the various time points. From these, oxidation rates (µM/min) and the relative remaining activity of the sample at different concentrations were calculated. The data were fit to sigmoidal dose-response curves with nonlinear regression, and IC50 values (the concentration at which the sample reduced the metabolism of the CYP substrate by 50%) were determined. […] This was analyzed using nonlinear equations in Graph Pad Prism, which produced IC50 values and its 95% confidence interval as the results.

[2] = tested on: peripheral blood mononuclear cells (PBMC); assay: Cellular antiproliferative activity (PrestoBlue); assay type: cell-based, human; conditions: 48 h, read-out: Peripheral Blood Mononuclear Cell (PBMC) IC50
Description: (2012) was performed. PBMC isolation and testing was approved by the Ethics Committee of the Department of Natural and Agricultural Sciences, University of Pretoria, Pretoria (Doc nr: EC120411-046; 17.05.2012). Briefly, peripheral blood mononuclear cells were isolated from blood that was freshly donated on the same day at the Student Clinic at the University of Pretoria. Mononuclear cells were isolated by centrifugation over Ficoll-Hypaque, a density gradient solution, with a density gradient of 1.07 g/mL. A layer of fresh heparinized venous blood was layered on the Ficoll-Hypaque at a ratio of 1:1 with supplemented RPMI 1640 media and then subjected to centrifugation at 3000 rpm for 30 min. Through centrifugation, the whole blood sample was separated into its different layers. […] The cells were counted and seeded in 96-well plates with a cell density of 10,000 cells/mL. The following formula was used to adjust the cell concentrations (Equation 1): (1) Concentration of the cells=Cells counted/number of blocks counted×10000.
The HepG2 cell line was seeded with a concentration of 1 × 10^5 cells/well. […] The absorbance was read at 490 nm with a reference wavelength of 690 nm using a BIO-TEK Power-Wave XS multiwell plate reader. The assay was performed in triplicate, and the mean IC50 values were calculated.

[3] = Nitric oxide scavenging assay (nitroprusside, Griess reagent); assay type: biochemical; conditions: 10 mM nitroprusside, 90 min, read-out: NO IC50
Description: Ethanol (10%) was used as a blank. Nitroprusside (50 μL) at a concentration of 10 mM was added to all the wells. The plates were incubated for 90 min at room temperature. After incubation, Griess reagent (100 μL) was added to all the wells, except for the color controls (negative controls) where instead distilled water was added. The absorbances were read at a wavelength of 546 nm using a BIO-TEK Power-Wave XS multiplate reader. From the absorbances an IC50 value was determined.

[4] = molecular target: T1, CYP 1A1 (placental microsomes) (Homo sapiens, UniProt P04798); assay: Inhibition of placental microsome-catalyzed CYP oxidation; assay type: in vitro ADME; conditions: CYP 1A1, substrate TFD024, placental microsomes
T1 construct: from tissue; host or cells: human placental microsomes
T1 sequence (P04798 1-512): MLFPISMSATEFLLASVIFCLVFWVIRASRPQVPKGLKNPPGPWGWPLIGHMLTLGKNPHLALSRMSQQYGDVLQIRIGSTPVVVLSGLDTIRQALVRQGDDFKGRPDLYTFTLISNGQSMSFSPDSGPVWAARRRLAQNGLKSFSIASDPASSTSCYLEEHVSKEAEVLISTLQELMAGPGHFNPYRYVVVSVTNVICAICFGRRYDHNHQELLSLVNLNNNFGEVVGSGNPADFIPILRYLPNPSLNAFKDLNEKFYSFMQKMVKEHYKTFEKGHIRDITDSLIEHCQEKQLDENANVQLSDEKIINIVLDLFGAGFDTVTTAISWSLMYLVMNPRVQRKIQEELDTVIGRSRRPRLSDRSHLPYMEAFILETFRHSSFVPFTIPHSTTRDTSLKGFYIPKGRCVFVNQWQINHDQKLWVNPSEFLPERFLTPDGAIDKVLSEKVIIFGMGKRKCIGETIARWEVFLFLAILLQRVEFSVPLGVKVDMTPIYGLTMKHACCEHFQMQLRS
Description: as §1

HepG2 cell line = tested on: HepG2 cell line; set-up: method as in Etemad et al. (2015) [19]; conditions: after 24 and 72 h, highest concentration tested; ref Etemad et al. (2015) [19]; read-out: HepG2 cellular toxicity IC50; cited from earlier work
PBMCs = tested on: PBMCs; set-up: method as in Sipahi et al. (2016) [21]; conditions: aqueous extract of verbascoside; ref Sipahi et al. (2016) [21]; read-out: PBMC cellular toxicity IC50; cited from earlier work

Microsomal IC50 (µM) with 95% Confidence Intervals [1]: No inhibition ^b
IC50 [3]: 382 ± 4.15 µM
Microsomal IC50 (µM) with 95% Confidence Intervals [4]: did not inhibit
IC50 ([4]; read-out: Microsomal IC50 (µM) with 95% Confidence Intervals): 350 µM
SMILES: C[C@@H]1O[C@@H](O[C@@H]2[C@@H](O)[C@H](OCCc3ccc(O)c(O)c3)O[C@H](CO)[C@H]2OC(=O)/C=C/c2ccc(O)c(O)c2)[C@H](O)[C@H](O)[C@H]1O [Verbascoside]
IC50 [2]: 170 ± 3.73 µM
IC50 ([2]; Homo sapiens, PBMC): > 100 µM
IC50 (HepG2 cell line): > 400 µM
IC50 (PBMCs): 384 µM
